Measurements published in article PMC7206119, “RIP1 inhibition blocks inflammatory diseases but not tumor growth or metastases” (Cell Death and Differentiation, 2019).

What was measured:
Test in all cases: biochemical
Set-up in all cases: DiscoverX kinase panel, active-site competition binding (KINOMEscan type), percent of control at one concentration
Conditions in all cases: competition binding, percent of control
[1] = molecular target: T1, ABL1(T315I)-nonphosphorylated (Homo sapiens, UniProt P00519, T315I)
T1 construct: nonphosphorylated

ACVR2B = ACVR2B (Homo sapiens, UniProt Q13705)
CAMK1D = CAMK1D (Homo sapiens, UniProt Q8IU85)
CDK8 = CDK8 (Homo sapiens, UniProt P49336)
DDR2 = DDR2 (Homo sapiens, UniProt Q16832)
EGFR(L858R) = EGFR(L858R) (Homo sapiens, UniProt P00533, L858R)
EPHB1 = EPHB1 (Homo sapiens, UniProt P54762)
ERBB4 = ERBB4 (Homo sapiens, UniProt Q15303)
GRK4 = GRK4 (Homo sapiens, UniProt P32298)
INSR = INSR (Homo sapiens, UniProt P06213)
JNK3 = molecular target: T2, JNK3 (Homo sapiens, UniProt P53779)
T2 construct: gene MAPK10

LATS1 = LATS1 (Homo sapiens, UniProt O95835)
LKB1 = molecular target: T3, LKB1 (Homo sapiens, UniProt Q15831)
T3 construct: gene STK11

LOK = molecular target: T4, LOK (Homo sapiens, UniProt O94804)
T4 construct: gene STK10

MYLK2 = MYLK2 (Homo sapiens, UniProt Q9H1R3)
PIK3CA(I800L) = PIK3CA(I800L) (Homo sapiens, UniProt P42336, I800L)
PRKCI = PRKCI (Homo sapiens, UniProt P41743)
PRKCQ = PRKCQ (Homo sapiens, UniProt Q04759)
RET = RET (Homo sapiens, UniProt P07949)
TESK1 = TESK1 (Homo sapiens, UniProt Q15569)
ZAK = molecular target: T5, ZAK (Homo sapiens, UniProt Q9NYL2)
T5 construct: gene MAP3K20

LATS1, sequence (O95835 whole entry): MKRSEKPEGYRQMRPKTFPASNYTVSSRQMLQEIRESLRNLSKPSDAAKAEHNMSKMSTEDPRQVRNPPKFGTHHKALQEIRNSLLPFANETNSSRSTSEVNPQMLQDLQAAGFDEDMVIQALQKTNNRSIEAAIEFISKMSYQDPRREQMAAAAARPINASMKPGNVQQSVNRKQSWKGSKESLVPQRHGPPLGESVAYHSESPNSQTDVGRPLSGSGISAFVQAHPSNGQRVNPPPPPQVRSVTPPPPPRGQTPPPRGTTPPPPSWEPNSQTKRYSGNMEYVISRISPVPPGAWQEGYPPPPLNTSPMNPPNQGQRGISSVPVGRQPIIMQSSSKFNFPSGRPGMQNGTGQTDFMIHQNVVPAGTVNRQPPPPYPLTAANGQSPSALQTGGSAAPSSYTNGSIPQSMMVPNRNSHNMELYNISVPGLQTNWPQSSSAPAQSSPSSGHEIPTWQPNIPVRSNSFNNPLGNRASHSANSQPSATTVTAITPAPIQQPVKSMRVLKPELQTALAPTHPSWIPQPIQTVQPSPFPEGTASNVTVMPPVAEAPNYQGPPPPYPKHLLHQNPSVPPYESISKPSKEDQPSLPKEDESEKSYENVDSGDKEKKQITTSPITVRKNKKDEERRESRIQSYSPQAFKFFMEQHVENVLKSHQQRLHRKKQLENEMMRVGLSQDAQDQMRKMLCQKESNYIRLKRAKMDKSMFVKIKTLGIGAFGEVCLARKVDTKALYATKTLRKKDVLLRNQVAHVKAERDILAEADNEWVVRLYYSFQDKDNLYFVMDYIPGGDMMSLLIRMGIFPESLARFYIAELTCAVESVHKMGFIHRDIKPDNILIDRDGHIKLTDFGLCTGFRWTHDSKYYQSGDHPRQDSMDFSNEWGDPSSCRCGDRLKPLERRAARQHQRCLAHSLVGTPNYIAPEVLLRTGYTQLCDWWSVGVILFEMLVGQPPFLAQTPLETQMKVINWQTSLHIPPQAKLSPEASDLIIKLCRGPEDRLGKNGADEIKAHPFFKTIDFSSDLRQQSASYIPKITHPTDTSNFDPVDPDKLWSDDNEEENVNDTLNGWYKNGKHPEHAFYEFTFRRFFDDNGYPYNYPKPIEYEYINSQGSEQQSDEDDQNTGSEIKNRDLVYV
ERBB4, sequence (Q15303 whole entry): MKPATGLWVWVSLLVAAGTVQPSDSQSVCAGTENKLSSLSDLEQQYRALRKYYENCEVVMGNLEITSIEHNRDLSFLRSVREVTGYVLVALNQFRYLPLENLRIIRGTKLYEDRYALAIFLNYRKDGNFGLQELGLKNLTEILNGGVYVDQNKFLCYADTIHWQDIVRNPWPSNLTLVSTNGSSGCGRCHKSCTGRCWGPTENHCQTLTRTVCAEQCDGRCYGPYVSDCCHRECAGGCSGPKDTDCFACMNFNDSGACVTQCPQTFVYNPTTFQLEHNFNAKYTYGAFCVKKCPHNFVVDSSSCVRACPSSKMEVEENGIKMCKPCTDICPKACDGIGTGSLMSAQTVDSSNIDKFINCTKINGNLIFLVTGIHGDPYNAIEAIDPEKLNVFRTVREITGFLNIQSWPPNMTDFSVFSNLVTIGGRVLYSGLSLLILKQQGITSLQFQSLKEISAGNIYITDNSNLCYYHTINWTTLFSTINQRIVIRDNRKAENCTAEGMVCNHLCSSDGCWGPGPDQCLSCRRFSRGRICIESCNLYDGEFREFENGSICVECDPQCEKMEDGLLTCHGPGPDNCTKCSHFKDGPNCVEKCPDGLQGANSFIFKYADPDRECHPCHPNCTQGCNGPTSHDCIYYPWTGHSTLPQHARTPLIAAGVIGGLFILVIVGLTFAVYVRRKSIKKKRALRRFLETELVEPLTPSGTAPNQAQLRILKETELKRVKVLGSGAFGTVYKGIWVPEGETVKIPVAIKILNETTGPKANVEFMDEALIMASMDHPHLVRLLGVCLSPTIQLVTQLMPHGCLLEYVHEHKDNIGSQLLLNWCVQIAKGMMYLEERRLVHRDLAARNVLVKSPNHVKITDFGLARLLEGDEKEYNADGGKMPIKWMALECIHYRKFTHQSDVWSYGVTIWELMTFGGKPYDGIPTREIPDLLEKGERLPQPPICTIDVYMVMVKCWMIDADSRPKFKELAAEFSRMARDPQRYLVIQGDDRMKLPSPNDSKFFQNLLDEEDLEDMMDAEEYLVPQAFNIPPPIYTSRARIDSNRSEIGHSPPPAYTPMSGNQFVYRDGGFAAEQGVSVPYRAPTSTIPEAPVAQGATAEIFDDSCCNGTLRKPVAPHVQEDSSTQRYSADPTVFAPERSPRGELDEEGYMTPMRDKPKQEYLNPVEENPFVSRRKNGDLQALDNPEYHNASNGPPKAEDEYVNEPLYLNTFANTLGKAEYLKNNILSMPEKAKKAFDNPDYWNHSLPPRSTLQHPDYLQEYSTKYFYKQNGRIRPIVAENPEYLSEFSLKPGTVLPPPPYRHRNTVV
PRKCQ, sequence (Q04759 whole entry): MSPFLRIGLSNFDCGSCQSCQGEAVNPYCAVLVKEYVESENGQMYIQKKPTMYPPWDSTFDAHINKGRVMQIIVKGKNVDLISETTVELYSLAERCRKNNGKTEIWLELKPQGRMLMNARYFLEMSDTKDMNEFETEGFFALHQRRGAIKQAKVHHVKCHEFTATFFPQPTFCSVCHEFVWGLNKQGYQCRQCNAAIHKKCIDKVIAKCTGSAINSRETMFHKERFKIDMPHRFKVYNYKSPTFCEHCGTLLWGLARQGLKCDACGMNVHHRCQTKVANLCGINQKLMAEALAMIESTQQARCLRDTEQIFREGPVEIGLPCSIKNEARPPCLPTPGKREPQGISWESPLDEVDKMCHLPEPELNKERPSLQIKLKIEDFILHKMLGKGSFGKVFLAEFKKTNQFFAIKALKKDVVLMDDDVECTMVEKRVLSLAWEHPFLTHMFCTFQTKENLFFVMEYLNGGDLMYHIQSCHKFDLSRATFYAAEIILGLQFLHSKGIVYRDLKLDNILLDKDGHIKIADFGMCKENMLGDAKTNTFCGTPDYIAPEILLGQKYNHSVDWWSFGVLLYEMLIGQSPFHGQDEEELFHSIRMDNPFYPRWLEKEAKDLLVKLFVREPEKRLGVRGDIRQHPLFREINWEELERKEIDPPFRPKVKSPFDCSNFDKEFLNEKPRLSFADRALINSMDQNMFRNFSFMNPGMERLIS
EGFR(L858R), sequence (P00533 whole entry L858R): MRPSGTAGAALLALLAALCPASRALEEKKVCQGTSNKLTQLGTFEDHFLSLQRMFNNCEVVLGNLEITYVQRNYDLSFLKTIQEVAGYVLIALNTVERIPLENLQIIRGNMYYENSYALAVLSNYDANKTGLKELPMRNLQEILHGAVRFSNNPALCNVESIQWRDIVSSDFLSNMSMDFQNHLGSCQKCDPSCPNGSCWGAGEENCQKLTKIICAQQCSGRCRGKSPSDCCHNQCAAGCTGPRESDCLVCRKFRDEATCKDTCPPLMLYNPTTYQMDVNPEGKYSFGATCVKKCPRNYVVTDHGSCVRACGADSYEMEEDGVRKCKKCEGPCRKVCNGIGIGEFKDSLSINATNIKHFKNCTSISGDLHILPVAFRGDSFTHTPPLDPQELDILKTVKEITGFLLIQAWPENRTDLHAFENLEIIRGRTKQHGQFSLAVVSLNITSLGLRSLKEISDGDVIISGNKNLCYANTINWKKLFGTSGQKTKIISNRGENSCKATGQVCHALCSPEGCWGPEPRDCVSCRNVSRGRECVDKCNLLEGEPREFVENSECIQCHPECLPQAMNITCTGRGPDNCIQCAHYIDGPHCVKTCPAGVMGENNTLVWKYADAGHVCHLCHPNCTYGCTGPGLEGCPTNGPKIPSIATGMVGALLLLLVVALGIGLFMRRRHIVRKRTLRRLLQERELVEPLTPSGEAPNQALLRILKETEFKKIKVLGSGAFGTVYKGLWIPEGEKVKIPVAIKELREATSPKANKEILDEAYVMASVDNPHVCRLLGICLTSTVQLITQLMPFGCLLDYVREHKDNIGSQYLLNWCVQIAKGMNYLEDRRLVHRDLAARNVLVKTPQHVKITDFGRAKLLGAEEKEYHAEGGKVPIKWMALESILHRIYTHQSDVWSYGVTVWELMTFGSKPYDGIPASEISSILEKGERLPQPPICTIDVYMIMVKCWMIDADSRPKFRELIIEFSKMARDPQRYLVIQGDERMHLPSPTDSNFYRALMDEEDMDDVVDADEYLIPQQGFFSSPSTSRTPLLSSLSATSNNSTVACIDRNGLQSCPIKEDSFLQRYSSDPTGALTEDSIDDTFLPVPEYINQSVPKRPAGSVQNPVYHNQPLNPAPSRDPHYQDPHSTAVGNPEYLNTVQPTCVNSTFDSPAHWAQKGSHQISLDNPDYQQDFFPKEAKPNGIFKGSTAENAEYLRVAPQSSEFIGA
MYLK2, sequence (Q9H1R3 whole entry): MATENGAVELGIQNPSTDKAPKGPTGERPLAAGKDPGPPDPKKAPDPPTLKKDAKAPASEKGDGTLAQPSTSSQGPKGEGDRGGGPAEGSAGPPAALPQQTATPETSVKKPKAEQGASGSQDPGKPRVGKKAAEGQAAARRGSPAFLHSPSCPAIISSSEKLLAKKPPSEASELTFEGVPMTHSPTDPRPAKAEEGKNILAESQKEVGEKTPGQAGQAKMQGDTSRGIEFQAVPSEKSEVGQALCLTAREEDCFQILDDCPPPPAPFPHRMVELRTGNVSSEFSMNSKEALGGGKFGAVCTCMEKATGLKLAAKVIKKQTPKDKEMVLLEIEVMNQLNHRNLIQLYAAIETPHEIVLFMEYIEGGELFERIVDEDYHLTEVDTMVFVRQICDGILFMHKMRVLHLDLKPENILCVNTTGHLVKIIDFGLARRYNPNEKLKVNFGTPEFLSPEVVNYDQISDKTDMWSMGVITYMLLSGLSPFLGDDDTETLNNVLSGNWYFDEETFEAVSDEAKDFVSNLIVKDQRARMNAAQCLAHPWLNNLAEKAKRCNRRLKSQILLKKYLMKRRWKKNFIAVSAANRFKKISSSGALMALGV

Compound: COc1cc2c(cn1)N(C)C(=O)[C@@H](NC(=O)c1nc3n(n1)[C@H](c1ccccc1)CC3)CC2 [GNE684, (S)-N-((S)-7-methoxy-1-methyl-2-oxo-2,3,4,5-tetrahydro-1H-pyrido[3,4-b]azepin-3-yl)-5-phenyl-6,7-dihydro-5H-pyrrolo[1,2-b][1,2,4]triazole-2-carboxamide]
- remaining binding at 10 µM [1]: 73%
- remaining binding at 10 µM (ACVR2B): 94%
- remaining binding at 10 µM (CAMK1D): 98%
- remaining binding at 10 µM (CDK8): 97%
- remaining binding at 10 µM (DDR2): 100%
- remaining binding at 10 µM (EGFR(L858R)): 100%
- remaining binding at 10 µM (EPHB1): 100%
- remaining binding at 10 µM (ERBB4): 85%
- remaining binding at 10 µM (GRK4): 100%
- remaining binding at 10 µM (INSR): 90%
- remaining binding at 10 µM (JNK3): 98%
- remaining binding at 10 µM (LATS1): 89%
- remaining binding at 10 µM (LKB1): 100%
- remaining binding at 10 µM (LOK): 82%
- remaining binding at 10 µM (MYLK2): 83%
- remaining binding at 10 µM (PIK3CA(I800L)): 96%
- remaining binding at 10 µM (PRKCI): 95%
- remaining binding at 10 µM (PRKCQ): 100%
- remaining binding at 10 µM (RET): 98%
- remaining binding at 10 µM (TESK1): 94%
- remaining binding at 10 µM (ZAK): 99%
